Laboratory results published in article PMC7862507, “Adrenomedullin for steroid-resistant ulcerative colitis: a randomized, double-blind, placebo-controlled phase-2a clinical trial” (Journal of Gastroenterology, 2020).

Key:
[1] = system: patients with steroid-resistant UC; test: Mayo score, phase-2a clinical trial; assay type: in vivo, Japanese patients; details: mean ± SD
Source text: (§1) Patients had to meet all criteria, namely, a Mayo score of 6 or more, a rectal bleeding subscore of at least 1, and Mayo endoscopy subscore (MES) of at least 2, at entry. Main exclusion criteria were as follows: patients with fulminant UC, patients with precancerous lesion in the colon, medication history of biologics within the last 3 months, patients with malignancy or any history of malignancy, and patients with active infection. We excluded patients with a systolic blood pressure under 90 mmHg and a pulse rate under 45 bpm for safety reasons due to the vasodilatory effect of AM. All patients provided written informed consent for all study-related procedures and were requested to be hospitalized for 2 weeks.
(§2) Patients were enrolled after confirmation of steroid-resistance defined as at least daily treatment with 30 mg or more of prednisolone. Screening tests including measurements of vital signs, blood and urine examinations, as well as a 12-lead electrocardiography (ECG), were conducted within 2 weeks prior to administration. Demographic data and disease characteristics including endoscopic disease activity of patients were also collected before randomization. Endoscopic subscores were assessed by on-site investigators and were not subjected to central review. Clinical disease activity was assessed by expert doctors according to the Mayo score and Lichtiger index. Stool samples were collected before administration of the investigational drug and after 2 weeks of treatment initiation. Measurements of fecal calprotectin and […] (FITs) were performed by a commercially available laboratory testing service (BML, Tokyo, Japan) in compliance with GCP. Additionally, measurements of complement components including CH50, C1q, C3, and C4 and evaluation of the absolute number of hematopoietic stem cells in the peripheral blood were performed before and after 2, 4, and 8 weeks by other laboratory testing services (SRL medisearch, Tokyo, Japan and LSI medience, Tokyo, Japan, respectively). The absolute number of hematopoietic stem cells in the peripheral blood was measured as CD34-positive cells using CD45FITC/CD34PE, 7AAD kit (Becton Dickinson Immunocytometry System, USA) and flow cytometry.
(§3) After hospitalization, patients received a continuous infusion of the assigned drug for 8 h per day for a total of 14 days. After the final administration of the investigational drug, patients were subjected to safety examinations and then discharged. But, if necessary due to disease activity, continuous hospitalization was allowed. Patients were requested to make an office visit at 4 and 8 weeks. Evaluations of their Mayo scores including endoscopic examinations were done at 2 and 8 weeks, whereas evaluation of the Lichtiger index was done at 2, 4, and 8 weeks. The dose of concomitant steroid was maintained for 2 weeks after drug administration, and then, a reduction in the steroid dose was allowed depending on the disease condition. Changes to the doses of other drugs, such as aminosalicylic acid, were prohibited throughout the trial.
(§4) All data were collected at each institute from March 2017 to April 2019. The primary endpoint was the change in the Mayo scores at 2 weeks. Secondary endpoints included the change in the Mayo scores at 8 weeks and the rate of clinical remission at 2 and 8 weeks, defined as a Mayo score 0; the response rate of the Mayo scores at 2 and 8 weeks, defined as an improvement of a 3-point or more decrease or at least a 30% decrease from baseline; the changes in MES at 2 and 8 weeks; the changes in the Lichtiger index at 2, 4, and 8 weeks; the changes in fecal calprotectin and FIT at 2 weeks; and finally, the changes in the given dose of steroid.
(§5) The significant level for each test was 5%. […] All data are shown as mean ± standard deviation (SD).

[2] = system: patients with steroid-resistant UC; test: Lichtiger index, phase-2a clinical trial; assay type: in vivo, Japanese patients; details: mean ± SD
Source text: as §1, §2, §3, §4, §5

[3] = system: patients with steroid-resistant UC; test: Mayo endoscopy subscore (MES), phase-2a clinical trial; assay type: in vivo, Japanese patients; details: mean ± SD
Source text: as §1, §2, §3, §4, §5

[4] = system: patients with steroid-resistant UC; test: Dose of concomitant steroid, phase-2a clinical trial; assay type: in vivo, Japanese patients; details: n = 3, mean ± SD, placebo 11.3 ± 6.4
Description: as §3, §4, §5

steroid-resistant UC = details: 9 ng/kg/min of AM; real dose might have been higher (1.4-fold dose of bulk powder used); cited from earlier work
Source text: A high rate of the placebo effect has been reported in a previous trial for UC [1–3]. High response rates in the placebo group have occasionally obstructed the successful accomplishment of clinical trials for active UC [19]. In this trial, we were concerned about the major impact from the placebo effect because attending patients received hospitalization and bed rest for 2 weeks. Figure 2 illustrates the changes in clinical indexes and fecal markers of each patient at 2 weeks.

[5] = Plasma concentration of adrenomedullin (pharmacokinetics); details: human, intravenous
Description: Serum concentrations of AM were assessed at predose, 4 and 8 h, and 2 h after administration (10 h after the start of drug administration) on 1, 8, and 14 days of the administration. […] Measurements and data processing were carried by the Bozo Research Centre (Tsukuba, Japan). The evaluated pharmacokinetic (PK) parameters included the maximum measured plasma concentration (Cmax); the time to maximum measured plasma concentration (Tmax); and the cumulative area under the plasma concentration–time curve (AUC) from time 0 to time 10 h.
The Cmax and Tmax values were obtained directly from the data, while the AUC was calculated using the Phoenix WinNonlin software 6·1 (Pharsight, CA, USA). All data are shown as mean ± standard deviation (SD).

**Q.** With `CC[C@H](C)[C@H](NC(=O)[C@H](CCC(N)=O)NC(=O)[C@H](Cc1c[nH]cn1)NC(=O)[C@H](C)NC(=O)[C@H](CC(C)C)NC(=O)[C@H](CCCCN)NC(=O)[C@H](CCC(N)=O)NC(=O)[C@@H](NC(=O)[C@@H](NC(=O)[C@@H]1CSSC[C@H](NC(=O)CNC(=O)[C@H](Cc2ccccc2)NC(=O)[C@H](CO)NC(=O)[C@H](CCCNC(=N)N)NC(=O)[C@H](CC(C)C)NC(=O)CNC(=O)[C@H](CCC(N)=O)NC(=O)[C@H](Cc2ccccc2)NC(=O)[C@H](CC(N)=O)NC(=O)[C@H](CC(N)=O)NC(=O)[C@H](CCSC)NC(=O)[C@H](CO)NC(=O)[C@H](CCC(N)=O)NC(=O)[C@H](CCCNC(=N)N)NC(=O)[C@@H](N)Cc2ccc(O)cc2)C(=O)N[C@@H](CCCNC(=N)N)C(=O)N[C@@H](Cc2ccccc2)C(=O)NCC(=O)N[C@@H]([C@@H](C)O)C(=O)N1)[C@@H](C)O)C(C)C)C(=O)N[C@@H](Cc1ccc(O)cc1)C(=O)N[C@@H](CCC(N)=O)C(=O)N[C@@H](Cc1ccccc1)C(=O)N[C@H](C(=O)N[C@@H](CC(=O)O)C(=O)N[C@@H](CCCCN)C(=O)N[C@@H](CC(=O)O)C(=O)N[C@@H](CCCCN)C(=O)N[C@@H](CC(=O)O)C(=O)N[C@@H](CC(N)=O)C(=O)N[C@H](C(=O)N[C@@H](C)C(=O)N1CCC[C@H]1C(=O)N[C@@H](CCCNC(=N)N)C(=O)N[C@@H](CO)C(=O)N[C@@H](CCCCN)C(=O)N[C@H](C(=O)N[C@@H](CO)C(=O)N1CCC[C@H]1C(=O)N[C@@H](CCC(N)=O)C(=O)NCC(=O)N[C@@H](Cc1ccc(O)cc1)C(N)=O)[C@@H](C)CC)C(C)C)[C@@H](C)O` [Adrenomedullin] as the compound, how does the Mayo score ([1]; AM 5 ng/kg/min infusion 8 h/day x 14 days, at 2 weeks, n = 4, baseline 9.5 ± 1.0, placebo 6.8 ± 3.6) read?
**A.** 5.0 ± 3.2

**Q.** What about the Mayo score ([1]; AM 5 ng/kg/min infusion 8 h/day x 14 days, at 8 weeks, n = 3, placebo 4.5 ± 3.5 (n = 2)) of the same compound?
**A.** 2.0 ± 1.7

**Q.** What about the Mayo score ([1]; AM 10 ng/kg/min infusion 8 h/day x 14 days, at 2 weeks, n = 5, baseline 8.8 ± 1.1, placebo 6.8 ± 3.6) of the same compound?
**A.** 7.2 ± 2.7

**Q.** And the Mayo score ([1]; AM 10 ng/kg/min infusion 8 h/day x 14 days, at 8 weeks, n = 3, placebo 4.5 ± 3.5 (n = 2))?
**A.** 5.7 ± 2.5

**Q.** What about the Mayo score ([1]; AM 15 ng/kg/min infusion 8 h/day x 14 days, at 2 weeks, n = 6, baseline 9.8 ± 1.6, placebo 6.8 ± 3.6) of the same compound?
**A.** 7.0 ± 4.1

**Q.** What about the Mayo score ([1]; AM 15 ng/kg/min infusion 8 h/day x 14 days, at 8 weeks, n = 3, placebo 4.5 ± 3.5 (n = 2)) of the same compound?
**A.** 0.0 ± 0.0

**Q.** And the Lichitiger index ([2]; AM 5 ng/kg/min infusion 8 h/day x 14 days, at 2 weeks, n = 4, baseline 10.8 ± 2.9, placebo 7.0 ± 5.8)?
**A.** 5.5 ± 5.6

**Q.** What about the Lichitiger index ([2]; AM 5 ng/kg/min infusion 8 h/day x 14 days, at 4 weeks, n = 3, placebo 3.5 ± 3.7) of the same compound?
**A.** 2.0 ± 1.7

**Q.** And the Lichitiger index ([2]; AM 5 ng/kg/min infusion 8 h/day x 14 days, at 8 weeks, n = 3, placebo 2.3 ± 4.0)?
**A.** 1.3 ± 1.2

**Q.** What about the Lichitiger index ([2]; AM 10 ng/kg/min infusion 8 h/day x 14 days, at 2 weeks, n = 5, baseline 12.2 ± 0.4, placebo 7.0 ± 5.8) of the same compound?
**A.** 7.8 ± 3.8

**Q.** What about the Lichitiger index ([2]; AM 10 ng/kg/min infusion 8 h/day x 14 days, at 4 weeks, n = 3, placebo 3.5 ± 3.7) of the same compound?
**A.** 4.7 ± 4.7

**Q.** And the Lichitiger index ([2]; AM 10 ng/kg/min infusion 8 h/day x 14 days, at 8 weeks, n = 3, placebo 2.3 ± 4.0)?
**A.** 5.7 ± 4.5

**Q.** What about the Lichitiger index ([2]; AM 15 ng/kg/min infusion 8 h/day x 14 days, at 2 weeks, n = 6, baseline 12.0 ± 1.7, placebo 7.0 ± 5.8) of the same compound?
**A.** 6.5 ± 4.4

**Q.** And the Lichitiger index ([2]; AM 15 ng/kg/min infusion 8 h/day x 14 days, at 4 weeks, n = 3, placebo 3.5 ± 3.7)?
**A.** 1.3 ± 1.5

**Q.** What about the Lichitiger index ([2]; AM 15 ng/kg/min infusion 8 h/day x 14 days, at 8 weeks, n = 3, placebo 2.3 ± 4.0) of the same compound?
**A.** 0.3 ± 0.6

**Q.** And the “MES (Mayo endoscopic sub-score)” value ([3]; AM 5 ng/kg/min infusion 8 h/day x 14 days, 2 week, n = 4, baseline 2.3 ± 0.5, placebo 2.0 ± 0.6)?
**A.** 1.5 ± 0.6

**Q.** What about the “Change of MES” value ([3]; AM 5 ng/kg/min infusion 8 h/day x 14 days, 2 week, n = 4, placebo -0.5 ± 0.8, P = 0.67 vs. placebo) of the same compound?
**A.** -0.8 ± 1.0

**Q.** And the “MES (Mayo endoscopic sub-score)” value ([3]; AM 5 ng/kg/min infusion 8 h/day x 14 days, 8 week, n = 3, placebo 2.0 ± 1.4 (n = 2))?
**A.** 0.7 ± 0.6

**Q.** And the “Change of MES” value ([3]; AM 5 ng/kg/min infusion 8 h/day x 14 days, 8 week, n = 3, placebo -0.5 ± 2.1 (n = 2), P = 0.47 vs. placebo)?
**A.** -1.7 ± 1.2

**Q.** And the “MES (Mayo endoscopic sub-score)” value ([3]; AM 10 ng/kg/min infusion 8 h/day x 14 days, 2 week, n = 5, baseline 2.2 ± 0.4, placebo 2.0 ± 0.6)?
**A.** 2.2 ± 0.8

**Q.** And the “Change of MES” value ([3]; AM 10 ng/kg/min infusion 8 h/day x 14 days, 2 week, n = 5, placebo -0.5 ± 0.8, P = 0.32 vs. placebo)?
**A.** 0.0 ± 0.7

**Q.** What about the “MES (Mayo endoscopic sub-score)” value ([3]; AM 10 ng/kg/min infusion 8 h/day x 14 days, 8 week, n = 3, placebo 2.0 ± 1.4 (n = 2)) of the same compound?
**A.** 2.0 ± 0.0

**Q.** What about the “Change of MES” value ([3]; AM 10 ng/kg/min infusion 8 h/day x 14 days, 8 week, n = 3, placebo -0.5 ± 2.1 (n = 2), P = 0.69 vs. placebo) of the same compound?
**A.** 0.0 ± 0.0

**Q.** And the “MES (Mayo endoscopic sub-score)” value ([3]; AM 15 ng/kg/min infusion 8 h/day x 14 days, 2 week, n = 6, baseline 2.5 ± 0.5, placebo 2.0 ± 0.6)?
**A.** 2.3 ± 1.0

**Q.** And the “Change of MES” value ([3]; AM 15 ng/kg/min infusion 8 h/day x 14 days, 2 week, n = 6, placebo -0.5 ± 0.8, P = 0.49 vs. placebo)?
**A.** -0.2 ± 0.8

**Q.** And the “MES (Mayo endoscopic sub-score)” value ([3]; AM 15 ng/kg/min infusion 8 h/day x 14 days, 8 week, n = 3, placebo 2.0 ± 1.4 (n = 2))?
**A.** 0.0 ± 0.0

**Q.** What about the “Change of MES” value ([3]; AM 15 ng/kg/min infusion 8 h/day x 14 days, 8 week, n = 3, placebo -0.5 ± 2.1 (n = 2), P = 0.27 vs. placebo) of the same compound?
**A.** -2.0 ± 0.0

**Q.** What about the “dose of steroid at 8 weeks” value ([4]; AM 5 ng/kg/min group) of the same compound?
**A.** 5.0 ± 8.7 mg

**Q.** And the “dose of steroid at 8 weeks” value ([4]; AM 10 ng/kg/min group)?
**A.** 10.0 ± 10.0 mg

**Q.** And the “dose of steroid at 8 weeks” value ([4]; AM 15 ng/kg/min group)?
**A.** 16.7 ± 12.6 mg

**Q.** And the “improvement in steroid-resistant UC” value (steroid-resistant UC)?
**A.** significant improvement

**Q.** And the AUC(0-t) ([5]; 5 ng/kg/min)?
**A.** 0.152 ± 0.034 ng·h/mL

**Q.** What about the AUC(0-t) ([5]; 10 ng/kg/min) of the same compound?
**A.** 0.281 ± 0.039 ng·h/mL

**Q.** What about the AUC(0-t) ([5]; 15 ng/kg/min) of the same compound?
**A.** 0.44 ± 0.191 ng·h/mL
